From patent US20210332024A1, “MODULATORS OF PIN1 ACTIVITY AND USES THEREOF” (Yeda Research and Development Co. Ltd., priority 2019, published 2021)

Experiments:
[1] = test system: Pin1-knockout 8988T pancreatic cancer cells; assay: Prolonged-treatment cell growth, Pin1-knockout 8988T; format: cell-based; conditions: 1 μM
Protocol: (§1) The ability of Pin1-3 treatment to induce more pronounced anti-proliferative effects after prolonged treatment (6-8 days) was then assessed. In order to ensure that target engagement was maintained for the duration of the experiment, Pin1-3 was replenished in fresh media every 48 hours.
The effect of Pin1-binding compounds on 8988T pancreatic adenocarcinoma cells was assessed by incubating cells with 1 μM Pin1-3, and evaluating cell growth relative to cells incubated with vehicle (DMSO) alone. In order to confirm that the effect of Pin1-3 is mediated by Pin1, the experiment was repeated using Pin1 knockout cells.

[2] = test system: wild-type 8988T pancreatic cancer cells; assay: Organoid growth in Matrigel, wild-type PATU-8988T; format: cell-based; conditions: 1 μM, 9 days
Protocol: As three dimensional (3D) organoid models can reflect in vivo results better than monolayer cell culture [Baker et al., Trends Cancer Res 2016, 2:176-190], the anti-proliferative activity of Pin1-3 in PATU-8988T was further evaluated in wild-type or Pin1-knockout cells grown as organoids in Matrigel™ droplets. Cells were treated for 9 days with Pin1-3 (or Pin1-3-AcA or vehicle as a control), replenishing the compound in media every 3 days.

[3] = test system: Kuramochi ovarian carcinoma cells; assay: Prolonged-treatment cell growth, Kuramochi; format: cell-based; conditions: 1 or 2.5 μM
Protocol: as §1

[4] = test system: Pancreatic ductal adenocarcinoma (PDAC) cells; assay: PDAC cell growth; format: cell-based, human; conditions: treated for 3 days
Protocol: Pancreatic ductal adenocarcinoma (PDAC) cells (derived from a human patient) were treated with Pin1-3 for 3 days. PDAC organoids were treated with Pin1-3 for 7 days (day 7 to day 14).

[5] = test system: MDA-MB-468 breast adenocarcinoma cells; assay: Prolonged-treatment cell growth, MDA-MB-468; format: cell-based; conditions: MDA-MB-468, 1 or 2.5 μM
Protocol: as §1

[6] = test system: MYCN-overexpressing PSNS neuroblasts; assay: Zebrafish embryo model of MYCN-driven neuroblastoma; format: in vivo
Excerpt: Zebrafish were used for a model of childhood neuroblastoma, in which the tissue-specific overexpression of the human MYCN transgene using the dopamine β hydroxylase (dβh) promoter in the zebrafish peripheral sympathetic nerve system (PSNS) drives neuroblastoma tumorigenesis in zebrafish [Zhu et al., Cancer Cell 2012, 21:362-373]. The fish are also transgenic for a PSNS-specific dβh:EGFP reporter line, so that the tumors can be visualized by EGFP. In this model, hyperproliferation of sympathetic neuroblasts is evident in the […] (counterpart of the adrenal medulla) starting at 4 days post-fertilization (dpf).
Zebrafish embryos at 3 dpf were treated with different concentrations of the test compound in the egg water (reverse osmosis or RO water with 0.6 gm/liter instant ocean salts) for 4 days. The embryos were transferred to egg water containing freshly diluted drug after 2 days (5 dpf). The embryos were then imaged at 7 dpf, and the relative EGFP+MYCN-overexpressing neuroblast cross-sectional area for each experimental group was quantified.
The effect of Pin1-binding […] on neuroblastoma cells was assessed using a zebrafish embryo model of neuroblastoma, using procedures described in the Materials and Methods section hereinabove. Neuroblastoma is a pediatric malignancy derived from the peripheral sympathetic nervous system (PSNS). […] Overexpression of the MYCN oncogene, which is the oncogenic driver in approximately 20% of human high-risk neuroblastomas, in the PSNS of Tg(dβh:MYCN;dβh:EGFP) transgenic zebrafish, causes the fish to develop neuroblast hyperplasia (as shown, for example, in FIG. 42), which rapidly progress into fully transformed tumors that faithfully resemble human high-risk neuroblastoma [Zhu et al., Cancer Cell 2012, 21:362-373; He et al., Elife 2016, 5; Zimmerman et al., Cancer Discov 2016, 8:320-335].

[7] = target: GST-Pin1 (Homo sapiens, UniProt Q13526); assay: Fluorescence polarization (FP) competition assay; format: binding
Protocol: Binding affinity to Pin1 was determined using a fluorescence polarization assay to assess competition with an N-terminal fluorescein-labeled peptide (Bth-D-phosThr-Pip-Nal), which was obtained from JPT Peptide Technologies and Proteintech Group. The indicated concentrations of candidate compound were pre-incubated for 12 hours at 4° C. with a solution containing 250 nM glutathione S-transferase (GST)-Pin1, 5 nM of fluorescein-labeled peptide probe, 10 μg/ml bovine serum albumin, 0.01% Tween-20 and 1 mM DTT (dithiothreitol) in a buffer of 10 mM HEPES, 10 mM NaCl and 1% glycerol (pH 7.4). Measurements of FP were performed in black 384-well plates (Corning) using an EnVision™ reader. Apparent Ki values (under the tested conditions) obtained from the FP assay results were derived from the Kenakin Ki equation:
Kenakin Ki=(Lb)(EC50)(Kd)/(Lo)(Ro)+Lb(Ro−Lo+Lb−Kd)
Sittampalam G. S. et al., Eli Lilly & Company and the National Center for Advancing Translational Sciences, 2004].
Covalent labeling of Pin1 was confirmed to translate into enzyme inhibition via a fluorescence polarization (FP) competition assay using a FITC-labeled substrate mimetic peptide inhibitor, as well as a chymotrypsin-coupled PPIase assay, using procedures described in Wei et al. [Nat Med 2015, 21:457-466].
The fluorescent polarization assay was performed in a dose-dependent and time-dependent manner, in order to further characterize the kinetic parameters of Pin1-3 binding to Pin1.

[8] = test system: PDX (patient-derived xenograft) tumors; assay: PDX orthotopic xenograft mouse model; format: in vivo; conditions: IP 2 or 4 mg/kg every day, 6 weeks
Protocol: 4×2 mm PDX (patient-derived xenograft) tumors were transplanted into NSC mouse pancreas (orthotopic xenografts). After 1 week of the transplantation, treatment of mice with Pin1-3 began. Mice were treated (IP) with Pin1-3 diluted solution (as a control), or 2 or 4 mg/kg […] every day. Tumor size were measured and mice were sacrificed after 6 weeks to collect tumor tissue (n=5).

Sequence of GST-Pin1 (Q13526 whole entry): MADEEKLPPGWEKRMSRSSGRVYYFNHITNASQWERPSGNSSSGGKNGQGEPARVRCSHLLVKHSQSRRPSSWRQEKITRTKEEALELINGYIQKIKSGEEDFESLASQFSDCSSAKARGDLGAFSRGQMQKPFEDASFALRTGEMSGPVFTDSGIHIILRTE

CC(C)(C)CN(C(=O)CCl)C1CCS(=O)(=O)C1 (stereo not drawn) [Pin1-3, 2-chloro-N-(sulfolan-3-yl)-N-neopentylacetamide]
Cell viability / growth [1]: no considerable effect
Organoid growth [2]: significantly retarded organoid growth
Cell growth [3]: long-term inhibition
PDAC cell growth [4]: inhibited tumor growth of PDAC cells in a dose-dependent manner
Cell growth [5]: long-term inhibition
Cross-section of the EGFP-expressing PSNS cells ([6]; 100 μM for 4 days): indistinguishable from that of controls without hyperproliferation
Toxicity in embryos ([6]; 25 to 100 μM in the egg water): no evidence of toxicity
Hyperproliferation of MYCN-overexpressing PSNS neuroblasts ([6]; 25 to 100 μM in the egg water, 3 to 7 dpf): suppressed the hyperproliferation of MYCN-overexpressing PSNS neuroblasts
Ki ([7]; FP assay, competition with fluorescein-labeled peptide, 250 nM GST-Pin1, read-out: Ki (apparent)): 110 nM
kinact ([7]; dose-dependent and time-dependent FP assay): 0.0005 s⁻¹
kinact/KI ([7]; dose-dependent and time-dependent FP assay, read-out: Kinact/Ki (apparent)): 29000 M⁻¹ s⁻¹
PDX tumor growth [8]: inhibited PDX tumor growth in mice in a dose-dependent manner
